Assay results reported in patent publication US8901307B2, “Chemical compounds 251” (AstraZeneca AB, priority 2008, dated 2014).
Counter-ions that a name gives are not always drawn. Like-named read-outs stand apart in the source and are kept apart here.

Experiments:
human His-PIM2 [23-299] = biological target: T1, human His-PIM2 [23-299] (Homo sapiens, UniProt Q9P1W9); test: PIM2 in-vitro mobility shift assay (Caliper LC3000, FL-Ahx-Bad phosphorylation); format: biochemical; conditions: 1.5 h; percent inhibition at 0.3 uM compound; read-out: PIM2 % I at 0.3 uM
T1 construct: purified human His-PIM2 [23-299] enzyme; His (N); host or cells: E. coli
T1 sequence (Q9P1W9 23-299): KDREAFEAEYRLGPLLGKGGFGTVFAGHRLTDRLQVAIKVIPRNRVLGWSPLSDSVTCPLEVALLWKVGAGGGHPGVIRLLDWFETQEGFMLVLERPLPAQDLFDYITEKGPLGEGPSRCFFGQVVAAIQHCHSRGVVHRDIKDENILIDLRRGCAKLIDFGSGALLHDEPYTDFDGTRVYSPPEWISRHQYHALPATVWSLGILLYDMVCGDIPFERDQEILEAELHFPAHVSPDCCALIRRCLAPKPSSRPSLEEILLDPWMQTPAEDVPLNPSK

human His-PIM1 [2-313] = biological target: T2, human His-PIM1 [2-313] (Homo sapiens, UniProt P11309); test: PIM1 in-vitro mobility shift assay (Caliper LC3000, FL-Ahx-Bad phosphorylation); format: biochemical; conditions: 1.5 h, read-out: PIM1 % I at 0.3 uM
T2 construct: purified human His-PIM1 [2-313] enzyme; His (N); purchased University of Dundee, Scotland; host or cells: baculovirus system
T2 sequence (P11309 2-313): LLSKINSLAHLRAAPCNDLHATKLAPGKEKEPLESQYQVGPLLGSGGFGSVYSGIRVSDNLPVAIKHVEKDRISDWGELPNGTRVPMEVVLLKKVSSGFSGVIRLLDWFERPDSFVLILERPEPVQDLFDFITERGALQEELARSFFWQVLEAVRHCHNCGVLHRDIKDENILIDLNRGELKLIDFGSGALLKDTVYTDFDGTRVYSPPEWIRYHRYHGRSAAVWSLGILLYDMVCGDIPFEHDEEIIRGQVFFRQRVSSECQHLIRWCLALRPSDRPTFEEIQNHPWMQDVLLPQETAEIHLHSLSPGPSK
In short: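 Compound preincubated 20 min at 25 °C with 2.4 nM PIM1, 3.6 µM FL-Ahx-Bad peptide and 240 µM ATP (1.2× mix concentrations). Reaction started with 24 mM MgCl2 mix, run 90 min at 25 °C, EDTA-stopped. Phospho/unphospho peptide separated by microfluidic mobility shift; percent inhibition from ratiometric turnover.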

[1] = percent inhibition at 0.3 uM compound

Row | SMILES | inhibition at 0.3 µM (human His-PIM2 [23-299]) | inhibition at 0.3 µM (human His-PIM1 [2-313]; [1]) | inhibition at 0.3 µM (human His-PIM1 [2-313])
1 | COc1ccc(N2CCC(N(C)C)C2)c(/C=C2\SC(=O)NC2=O)c1 (centres unmarked) [Example 43, (5Z)-5-{2-[3-(dimethylamino)pyrrolidin-1-yl]-5-methoxybenzylidene}-1,3-thiazolidine-2,4-dione] | 14.7% | 55.4% | 
2 | CC(=O)Nc1ccc(N2CCC(N(C)C)C2)c(/C=C2\SC(=O)NC2=O)c1 (centres unmarked) [Example 131B] | < 5% | < 5% | 
3 | COc1cc(/C=C2\SC(=O)NC2=O)c(N2CC[C@@H](NCCCN)C2)cc1OC [Example 122A, (R,Z)-5-(2-(3-(3-aminopropylamino)pyrrolidin-1-yl)-4,5-dimethoxybenzylidene)thiazolidine-2,4-dione hydrochloride] | 55% | 88.2% | 
4 | O=C1NC(=O)/C(=C/c2ccccc2N2CCN(C(=O)C3CCCNC3)CC2)S1 (centres unmarked) [Example 116, 5-(2-(4-(piperidine-3-carbonyl)piperazin-1-yl)benzylidene)thiazolidine-2,4-dione hydrochloride] | > 95% | > 95% | 
5 | N[C@@H]1CCCN(c2c(/C=C3\SC(=O)NC3=O)cccc2OC2CCCC2)C1 [Example 122AC, (R,Z)-5-(2-(3-aminopiperidin-1-yl)-3-(cyclopentyloxy)benzylidene)thiazolidine-2,4-dione hydrochloride] | > 95% | > 95% | 
6 | CCOc1cccc(/C=C2\SC(=O)NC2=O)c1N1CCC[C@@H](N)C1 [Example 122I, (R,Z)-5-(2-(3-aminopiperidin-1-yl)-3-ethoxybenzylidene)thiazolidine-2,4-dione hydrochloride] | > 95% | > 95% | 
7 | O=C1NC(=O)/C(=C/c2cccc(Cl)c2N2CCC[C@@H](NCCCO)C2)S1 [Example 134] | 85.2% | > 95% | 
8 | N[C@H]1CN(c2c(Cl)cccc2/C=C2\SC(=O)NC2=O)C[C@@H]1O [Example 122T, (Z)-5-(2-((3S,4S)-3-amino-4-hydroxypyrrolidin-1-yl)-3-chlorobenzylidene)thiazolidine-2,4-dione hydrochloride] | > 95% | > 95% | 
9 | Cn1cc(C(=O)N[C@H]2CCN(c3c(Cl)cccc3/C=C3\SC(=O)NC3=O)C2)cn1 [Example 141] | < 5% | 34.9% | 
10 | NCCC(=O)N1CCCN(c2ccccc2/C=C2\SC(=O)NC2=O)CC1 [Example 105, (Z)-5-(2-(4-(3-aminopropanoyl)-1,4-diazepan-1-yl)benzylidene)thiazolidine-2,4-dione hydrochloride] | 92.4% | > 95% | 
11 | CN1CCC(N2CCN(c3c(Cl)cc(C(F)(F)F)cc3/C=C3\SC(=O)NC3=O)CC2)CC1 [Example 19] | 38.3% | > 95% | 
12 | N[C@H]1CCCN(c2c(Cl)cc(C(F)(F)F)cc2/C=C2\SC(=O)NC2=O)C1 [Example 1, (S,Z)-5-(2-(3-aminopiperidin-1-yl)-3-chloro-5-(trifluoromethyl)benzylidene)thiazolidine-2,4-dione trifluoroacetate] | 77.7% | > 95% | 
13 | Cc1ccc(N2CC[C@H](N(C)C)C2)c(C=C2SC(=O)NC2=O)c1 [Example 84L, (S)-5-(2-(3-(dimethylamino)pyrrolidin-1-yl)-5-methylbenzylidene)thiazolidine-2,4-dione] | 55.2% | > 95% | 
14 | NCCCCC(=O)N1CCN(c2ccccc2/C=C2\SC(=O)NC2=O)CC1 [Example 108, (Z)-5-(2-(4-(5-aminopentanoyl)piperazin-1-yl)benzylidene)thiazolidine-2,4-dione hydrochloride] | > 95% | > 95% | 
15 | CN(C)[C@H]1CCN(c2c(Cl)cccc2/C=C2\SC(=O)NC2=O)C1 [Example 38, (S,Z)-5-(3-chloro-2-(3-(dimethylamino)pyrrolidin-1-yl)benzylidene)thiazolidine-2,4-dione] | 92.9% | > 95% | 
16 | O=C(Cc1ccncc1)N[C@H]1CCN(c2c(Cl)cccc2/C=C2\SC(=O)NC2=O)C1 [Example 140] | 52% | 73.3% | 
17 | N[C@@H]1CCN(c2c(Cl)cccc2/C=C2\SC(=O)NC2=O)C1 [Example 122G, (R,Z)-5-(2-(3-aminopyrrolidin-1-yl)-3-chlorobenzylidene)thiazolidin-2,4-dione hydrochloride] | 92.1% | > 95% | 
18 | N[C@@H]1CCCN(c2c(Cl)cc(C(F)(F)F)cc2/C=C2\SC(=O)NC2=O)C1 [Example 2] | > 95% | > 95% | 
19 | COc1cc(/C=C2\SC(=O)NC2=O)c(N2CC[C@H](NC(=O)CCCCN)C2)cc1OC [Example 120, (S,Z)-5-amino-N-(1-(2-((2,4-dioxothiazolidin-5-ylidene)methyl)-4,5-dimethoxyphenyl)pyrrolidin-3-yl)pentanamide hydrochloride] | 22.2% | 58.9% | 

Row | SMILES | inhibition at 0.3 µM (human His-PIM2 [23-299]) | inhibition at 0.3 µM (human His-PIM1 [2-313]; [1]) | inhibition at 0.3 µM (human His-PIM1 [2-313])
20 | Cc1noc(C2CCN(c3c(Cl)cc(C(F)(F)F)cc3/C=C3\SC(=O)NC3=O)CC2)n1 [Example 9] | < 5% | 6.9% | 
21 | N[C@H]1CCN(c2c(Cl)cccc2/C=C2\SC(=O)NC2=O)C1 [Example 86, (S,Z)-5-(2-(3-aminopyrrolidin-1-yl)-3-chlorobenzylidene)thiazolidine-2,4-dione hydrochloride] | > 95% | > 95% | 
22 | O=C1NC(=O)/C(=C/c2ccc3ncccc3c2)S1 [Example 77, (5Z)-5-(quinolin-6-ylmethylene)-1,3-thiazolidine-2,4-dione trifluoroacetate] | 22.7% | 51.2% | 
23 | O=C1NC(=O)/C(=C/c2ccc3[nH]ccc3c2)S1 [Example 78, (5Z)-5-(1H-indol-5-ylmethylene)-1,3-thiazolidine-2,4-dione] | 30% | 71.4% | 
24 | COc1cc(/C=C2\SC(=O)NC2=O)c(N2CCC(CN)C2)cc1OC (centres unmarked) [Example 99, (Z)-5-(2-(3-(aminomethyl)pyrrolidin-1-yl)-4,5-dimethoxybenzylidene)thiazolidine-2,4-dione hydrochloride] | > 95% | > 95% | 
25 | O=C1NC(=O)/C(=C/c2cccc(Cl)c2N2CCNCC2)S1 [Example 98, (Z)-5-(3-chloro-2-(piperazin-1-yl)benzylidene)thiazolidine-2,4-dione hydrochloride] | 81.4% | > 95% | 
26 | O=C1NC(=O)/C(=C/c2cccnc2N2CCNCC2)S1 [Example 89, (Z)-5-((2-(piperazin-1-yl)pyridin-3-yl)methylene)thiazolidine-2,4-dione hydrochloride] | 21.5% | 48.4% | 
27 | O=C1NC(=O)/C(=C/c2cccc(Cl)c2N2CCC[C@@H](NCCO)C2)S1 [Example 133] | 93.4% | > 95% | 
28 | COc1ccc(OCCCN)c(C=C2SC(=O)NC2=O)c1 [Example 129C] | 52.1% | 85% | 
29 | O=C1NC(=O)/C(=C/c2cc(C(F)(F)F)cc(Cl)c2N2CCC(CCO)CC2)S1 [Example 13] | < 5% | < 5% | 
30 | C[C@@H]1CN(c2ccc(C(F)(F)F)cc2/C=C2\SC(=O)NC2=O)C[C@H](C)N1 [Example 34, (Z)-5-(2-((3S,5R)-3,5-dimethylpiperazin-1-yl)-5-(trifluoromethyl)benzylidene)thiazolidine-2,4-dione hydrochloride] | 39.3% | > 95% | 
31 | NC[C@H]1CCN(c2c(Cl)cccc2/C=C2\SC(=O)NC2=O)C1 [Example 122B, (R,Z)-5-(2-(3-(aminomethyl)pyrrolidin-1-yl)-3-chlorobenzylidene)thiazolidine-2,4-dione] | 92.3% | > 95% | 
32 | COc1cc(/C=C2\SC(=O)NC2=O)c(N2CC[C@@H](NC(=O)CCCCN)C2)cc1OC [Example 119, (R,Z)-5-amino-N-(1-(2-((2,4-dioxothiazolidin-5-ylidene)methyl)-4,5-dimethoxyphenyl)pyrrolidin-3-yl)pentanamide hydrochloride] | 20.1% | 56.2% | 
33 | COc1cc(/C=C2\SC(=O)NC2=O)c(N2CC[C@H](NCCCN)C2)cc1OC [Example 121, (S,Z)-5-(2-(3-(3-aminopropylamino)pyrrolidin-1-yl)-4,5-dimethoxybenzylidene)thiazolidine-2,4-dione hydrochloride] | 87.4% | > 95% | 
34 | O=C(Cc1cccnc1)N[C@H]1CCN(c2c(Cl)cccc2/C=C2\SC(=O)NC2=O)C1 [Example 139] | 15.1% | 58.1% | 
35 | CNC1CN(c2c(Cl)cccc2/C=C2\SC(=O)NC2=O)CCC1C (centres unmarked) [Example 122U, (Z)-5-(3-chloro-2-(4-methyl-3-(methylamino)piperidin-1-yl)benzylidene)thiazolidine-2,4-dione hydrochloride] | > 95% | > 95% | 
36 | CC(=O)N1CCN(c2ccccc2/C=C2\SC(=O)NC2=O)CC1 [Example 130, (5Z)-5-[2-(4-acetylpiperazin-1-yl)benzylidene]-1,3-thiazolidine-2,4-dione] | 45.5% |  | 66.2%
37 | CC(C)N1CCN(c2ccccc2/C=C2\SC(=O)NC2=O)CC1 [Example 50, (5Z)-5-[2-(4-isopropylpiperazin-1-yl)benzylidene]-1,3-thiazolidine-2,4-dione] | 45.4% | 93.7% | 
